Like-named read-outs stand apart in the source and are kept apart here.
What was measured:
[1] = system: HeLa (human cervical carcinoma) cells; assay: MTT antiproliferative assay, HeLa; type: cell-based; conditions: for IC50: mean of three independent determinations, read-out: Cytotoxicity IC50 HeLa
Protocol: (§1) Melting points were determined on an X4 apparatus (Beijing Tech Instrument Co. Ltd., Beijing, China) and were uncorrected. The ^1H and ^13C NMR spectra were recorded in CDCl3 on a Bruker AV-600 spectrometer at working frequencies 600 and 150 MHz and a Bruker AV-300 spectrometer at working frequencies 300 and 75 MHz, respectively. Chemical shifts are expressed in parts per million (δ) values and coupling constants (J) in Hertz. Infrared spectra were measured with a Thermo Scientific Nicolet IS-10 Spectrophotometer (Thermo Scientific, America). HREIMS was measured on an Agilent 6210 TOFMS instrument (Agilent Technologies, America). The cell proliferation assay was undertaken by a MTT method using 96-well plates on a […] MK3 analysis spectrometer (Thermo Scientific, Shanghai, China).
(§2) The detailed procedure has been reported in our previous work.
(§3) The antiproliferative activities of all steroidal thiosemicarbazones and their Pt(II) metal complexes were determined in vitro on Bel 7404, HeLa, and HEK293T. […] The results are summarized as IC50 values in μM in Table 1.

[2] = system: Bel-7404 (human liver carcinoma) cells; assay: MTT antiproliferative assay, Bel-7404; type: cell-based; conditions: for IC50: mean of three independent determinations, read-out: Cytotoxicity IC50 Bel-7404
Protocol: as §1, §2, §3

[3] = MTT antiproliferative assay, HEK293T; type: cell-based; conditions: human, HEK293T normal kidney epithelial cells, mean of three independent determinations, read-out: Cytotoxicity IC50 HEK293T
Protocol: as §1, §2
(§4) The antiproliferative activities of all steroidal thiosemicarbazones and their Pt(II) metal complexes were determined in vitro on Bel 7404, HeLa, and HEK293T.

[4] = system: HEK293T (normal kidney epithelial cells); assay: MTT antiproliferative assay, HEK293T; type: cell-based; conditions: mean of three independent determinations, read-out: Cytotoxicity IC50 HEK293T
Protocol: as §1, §2, §4

[5] = Homo sapiens, BEL-7404, MTT assay

Compound	IC50 ([1]; Homo sapiens, HeLa, MTT assay)	melting point	IC50 [2, 5]	IC50 [3]	IC50 ([1]; MTT assay)	Cytotoxicity against HeLa cells (in words) ([1]; MTT assay, verbal summary)	SI HeLa (Selectivity Index) ([1]; ratio IC50 HEK293T versus IC50 HeLa)	IC50 ([2]; MTT assay)	Cytotoxicity against Bel 7404 cells (in words) ([2]; MTT assay, verbal summary)	SI Bel 7404 (Selectivity Index) ([2]; ratio IC50 HEK293T versus IC50 Bel 7404)	IC50 [4]
COC(=O)CCC(C)C1CCC2C3CCC4CC(=NNC(N)=S)CCC4(C)C3CC(=O)C12C (stereo not shown) [Compound 13, Methyl 3-Thiosemicarbazonyl-12-oxo-7-deoxycholicate]	> 200 µM	125 to 127 °C	> 200 µM	> 200 µM	–	–	–	–	–	–	–
CC12CCC3c4ccc(O)cc4CCC3C1CCC2=[N+]1NC(N)=[S+][Pt-2]1([Cl])[Cl] (stereo not shown) [Compound 3, [PtL ^2 Cl 2]]	–	–	–	–	23 µM	obvious cytotoxicity	> 8.7	39 µM	obvious cytotoxicity	> 5.1	> 200 µM
COC(=O)CCC(C)C1CCC2C3C(O)CC4CC(=NNC(N)=S)CCC4(C)C3CCC12C (stereo not shown) [Compound 10, Methyl 3-Thiosemicarbazonyl-7-hydroxychenodeoxycholicate]	142 µM	–	> 200 µM	> 200 µM	–	–	–	–	–	–	–
CC(=O)Oc1ccc2c(c1)CCC1C2CCC2(C)/C(=N/NC(N)=S)CCC12 (stereo not drawn) [Compound 5, 3β-Acetyloxyestron-17-thiosemicarbazone]	42 µM	248 to 249 °C	> 200 µM	> 200 µM	–	–	–	–	–	–	–
COC(=O)CCC(C)C1CCC2C3C(=O)CC4CC(=NNC(N)=S)CCC4(C)C3CCC12C (stereo not shown) [Compound 8, Methyl 3-Thiosemicarbazonyl-7-oxochenodeoxycholicate]	96 µM	285 to 286 °C	> 200 µM	> 200 µM	–	–	–	–	–	–	–
CC12CCC3c4ccc(O)cc4CCC3C1CCC2=NNC(N)=S (stereo not drawn) [Compound 2, 3β-Hydroxyestron-17-thiosemicarbazone]	34 µM	254 to 256 °C	19 µM	–	–	–	–	–	–	–	–

— paper PMC4618117, “Synthesis and Antiproliferative Activity of Steroidal Thiosemicarbazone Platinum (Pt(II)) Complexes” (Bioinorganic Chemistry and Applications, 2015)
